Like-named read-outs stand apart in the source and are kept apart here.
Legend:
[1] = test system: Rabbits; conditions: rabbit, in vivo
[2] = not given; remark: listed apart in the source

Terbutaline Flux (pH 3.8) [mcg/cm^2 /hr] | relative flux (flux in water case as unity) (pH 3.8) | Terbutaline Flux (pH 4.4) [mcg/cm^2 /hr] | relative flux (flux in water case as unity) (pH 4.4) | Terbutaline Flux (pH 4.6) [mcg/cm^2 /hr] | relative flux (flux in water case as unity) (pH 4.6) | Terbutaline Flux (pH 4.9) [mcg/cm^2 /hr] | relative flux (flux in water case as unity) (pH 4.9) | Terbutaline Flux (pH 5) [mcg/cm^2 /hr] | relative flux (flux in water case as unity) (pH 5) | Terbutaline Flux ([2]; pH 3.8) [mcg/cm^2 /hr] | relative flux (flux in water case as unity) ([2]; pH 3.8) | Terbutaline Flux ([2]; pH 4.2) [mcg/cm^2 /hr] | relative flux (flux in water case as unity) ([2]; pH 4.2) | Compound | classification as primary irritant or corrosive by dermal application [1]
– | – | – | – | – | – | – | – | – | – | – | – | – | – | CC(C)O [Isopropanol, isopropanol] | neither pure isopropanol nor aqueous isopropanol are classified as primary irritants or as corrosives
0.1 | 1 | 16.3 | 163 | 12.8 | 128 | 16.1 | 161 | 5.3 | 53 | 0.1 | 1 | 4.1 | 40 | CC(C)(C)NCC(O)c1cc(O)cc(O)c1 (stereo not drawn) [Terbutaline, terbutaline] | –
